Assay results from patent US11471528B2, “Methods for using extracellular adenosine inhibitors and adenosine receptor inhibitors to enhance immune response and inflammation” (The Government of the United States of America as …, priority 2001, dated 2022).

Legend:
[1] = test system: anti-TNP-specific immunoglobulins; assay: TNP-KLH vaccination, serum anti-TNP-specific immunoglobulins (ELISA); assay type: in vivo, mice; settings: for IgG2: day 7, co-injected with TNP-KLH; for serum levels of anti-TNP-specific IgG1: seven days, versus control
Experimental: The antigen was prepared for injection as follows. DNP-KLH (1.0 mg/ml, Biosearch Technologies, Inc. catalog no. T-5060-5) was prepared in PBS (e.g. dissolve 4.0 mg of purified DNP-KLH in PBS and raise volume to 4.0 ml). Complete Freund's Adjuvant (2.0 ml, CFA; Sigma F-5881) was vortexed and mixed with 2.0 ml of the TNP-KLH solution at 4° C. The CFA/KLH mixture was drawn into a 3-ml glass syringe with a 19-gauge needle. The syringe was attached to a double-ended locking hub connector or a plastic 3-way stopcock. An empty 2-ml glass syringe was attached to the other end and the mixture forced back and forth from one end to the other repeatedly. When the mixture was white and homogeneous, the connector or stopcock was disconnected, a 25 gauge needle attached, and tested for emulsion by placing a drop on the surface of 50 ml of cold water in a 100-ml beaker. The drop should hold together; if not, repeat mixing. […] Samples of blood were obtained by retro-orbital bleeding at 7, 14, and 21 days after TNP-KLH and theophylline injection. Serum levels of anti-TNP-specific IgG1, IgG2a, IgG2b, IgG3, and IgM were estimated using an ELISA kit (Sigma) according to the manufacturer's instructions.

IkB = IkB phosphorylation in macrophages after CpG (Western blot); assay type: in vivo; settings: C57BL/6 mice, 5 nMol CpG i.v., CGS21680 2 mg/kg, macrophages after 20 minutes
Experimental: After 20 minutes, macrophages were isolated as described above, and subjected to Western blot analysis using Ab that recognize IkB and Ab can distinguish the phosphorylated form of IkB (IkB-P).

[2] = test system: activated macrophages and T cells; assay: Secretion of IL-12 and IFN-γ by activated macrophages and T cells in vitro (ELISA); assay type: cell-based; settings: FIG. 1B
[3] = test system: NF-kB-regulated pro-inflammatory cytokines (TNFα, IL-12p40); assay: Cytokine mRNA in spleen of CpG-activated mice (RNase protection assay); assay type: in vivo; settings: C57BL/6 mice, 10 mg/kg i.p. 15 minutes before CpG, FIGS. 8A and 8B
Experimental: Mutant (A2aR^−/−) or wild-type mice were injected (i.p.) with 20 nmol CpG oligonucleotide (5′-T*C*[…]*A*T*G*C*T-3′, asterisk means phosphorothioate. SEQ ID NO. 1). This toll-receptor activating CpG DNA preparation stimulates the immune system. After one hour, mRNA was extracted from spleenocytes and analyzed for cytokine gene expression using an RNase protection assay with commercial templates (mCK-2b and mCK-3b, Pharmingen, San Diego, Calif.).

CMS4 tumor cells = assay: CMS4 lung tumors with antigen-specific CTL immunotherapy; assay type: in vivo; settings: BALB/c mice, CMS4 i.v., CTL on day 10; ZM241385 10 mg/kg/day i.p. or caffeine 0.1% w/v in drinking water; FIGS. 12A-C
Description: BALB/c mice were inoculated i.v. with CMS4 tumor cells (Methylcholanthrene-induced sarcoma, 2.5×10^5 cells) on day zero to induce the formation of lung tumors. […] The lung tumors were subsequently examined on days 17, day 18 and day 24, by sacrificing the mice and evaluating their lungs for the number and size of metastasis by visual inspection.

B16 melanoma cells = assay: B16 melanoma tumor growth; assay type: in vivo, mice; settings: daily i.p., ZM241385 0.2 mg/mouse, caffeine 0.4 mg/mouse, start 28 days after tumor cells; FIG. 14
Description: […] (immunocompromised nude mice; or immunocompetent C57BL/6 mice) were inoculated subcutaneously with B16 melanoma cells (American Type Culture Collection, Manassas, Va.), or B16-H2-Kd transfected tumor cells (increases the immunogenicity of the cells) on day zero to induce the formation of melanomas. The treatment with adenosine receptor antagonists started 28 days after injection of tumor cells, when the tumor reached 7-9 mm in diameter.
[…]. The delay in tumor growth was greater in immunocompetent C57BL/6 mice, and less so in immunocompromised nude mice. However, as the tumor increases in size, both antagonists slow down tumor growth even in immunocompromised animals. […] In addition, adenosine receptor antagonists appear to improve both anti-tumor immunity and preventing or decreasing angiogenesis.

[4] = co-injected with TNP-KLH, about 1 mg/kg

O=C(Cc1ccccc1)Nc1nc2ccc(Cl)cc2c2nc(-c3ccco3)nn12 [MRS1220]
IgG2 [1]: improved | serum levels of anti-TNP-specific IgG1 [1, 4]: markedly increased

CCNC(=O)[C@H]1O[C@@H](n2cnc3c(N)nc(NCCc4ccc(CCC(=O)O)cc4)nc32)[C@H](O)[C@@H]1O [CGS21680]
phosphorylation of IkB (IkB): decreased or inhibited | secretion of IFN-γ [2]: inhibited secretion | secretion of IL-12 [2]: inhibited secretion

Cn1c(=O)c2[nH]cnc2n(C)c1=O [theophylline]
serum levels of anti-TNP-specific IgG1 ([1]; co-injected i.p. with TNP-KLH, FIG. 15): markedly increased | serum levels of anti-TNP-specific IgG1 ([1]; co-injected subcutaneously with TNP-KLH): improvement of antibody production | serum levels of anti-TNP-specific IgG1 ([1]; co-injected subcutaneously with TNP-KLH, listed as theophyllin): markedly increased

Nc1nc(NCCc2ccc(O)cc2)nc2nc(-c3ccco3)nn12 [ZM241385]
mRNA expression of NF-kB-regulated pro-inflammatory cytokines [3]: higher expression of NF-kB-regulated pro-inflammatory cytokines | IgG2 [1]: improved | serum levels of anti-TNP-specific IgG1 [1, 4]: markedly increased | number of metastatic nodules in the lung (CMS4 tumor cells): decrease in the number of metastatic nodules | tumor growth (B16 melanoma cells): tumor retardation that became significant after 3-7 days of treatment
